Structures can show the parent of a compound that is named as a salt.
Legend:
[1] = Viscosity, Brookfield viscometer DV-II+ (Spindle No. 2, 12 rpm, 25°C); type: physicochemical
Method: The viscosity of the oil agent of the present invention is, when used in external preparations such as moisturizers and cosmetic materials, preferably 5-200 (mPa·s, 25°C), and more preferably 8-100 (mPa·s, 25°C) . When the viscosity is within the above range, good feeling of use without stickiness can be obtained upon application to skin, etc. In addition, when the oil agent is used in lubricating agents, the viscosity is preferably 50-200 (mPa·s, 25°C) , and more preferably 60-180 (mPa·s, 25°C). When the viscosity is within this range, appropriate lubricating property and workability can be obtained. In this specification, "viscosity" refers to a value of viscosity measured using a Brookfield viscometer DV-II+ (Spindle No. 2, 12 rpm, 25°C).
In these examples, viscosity was measured using a Brookfield viscometer DV-II+ (Spindle No. 2, 12 rpm, 25°C).

[2] = Feeling of use, graded by viscosity; type: physicochemical; conditions: class by viscosity at 25°C
[3] = Water solubility evaluation; type: physicochemical; conditions: in water
[4] = Oil solubility evaluation in KAK99 (isononyl isononanoate)

Viscosity [1] [mPa·s]	Feeling of use [2]	Oil solubility [4]	Compound	Water solubility [3]
45	slightly light	△ (Dissolved in KAK99 up to 5 % by mass)	CCOCCOCCOC(=O)CC(O)C(=O)OCCOCCOCC (stereo not drawn) [Example 2, dicarbitol malate]	○ (Dissolved in water up to 10 % by mass)
20	light	–	CCOCCOCCOC(=O)CCCCC(=O)OCCOCCOCC [Example 3, dicarbitol adipate]	–
207	slightly heavy	–	CCOCCOCCOC(=O)C(O)C(O)C(=O)OCCOCCOCC (stereo not drawn) [Example 4, dicarbitol tartrate]	–
32.5	slightly light	△ (Dissolved in KAK99 up to 5 % by mass)	CCOCCOCCOCCOC(=O)CCC(=O)OCCOCCOCCOCC [Example 5, di(triethylene glycol monoethyl ether) succinate]	–

More lines, now with the values behind:

Compound	Viscosity [1] [mPa·s]	Feeling of use [2]	Oil solubility [4]	Water solubility [3]
CCOCCOCCOC(=O)CC(C)CC(C)(C)C (stereo not drawn) [Comparative example 1, carbitol isononanoate, reference compound]	5	light	–	–
CCOCCOCCOC(=O)CCC(=O)OCCOCCOCC [Example 1, dicarbitol succinate]	12.5	light	–	–
CCOCCOC(=O)CCC(=O)OCCOCC [Example 6, di(monoethylene glycol monoethyl ether) succinate]	10.0	light	–	△ (Dissolved in water up to 5 % by mass)

Reference: EP2123249A1, “OIL SOLUTION, AND LUBRICANT, MOISTURE-RETAINING AGENT AND PREPARATION FOR EXTERNAL APPLICATION CONTAINING THE SAME” (priority 2007, dated 2008)
